“And” between values parts separate entries of the source, which are not always exact repeats. Identical values can stand only once.
What was measured:
CD1c = test system: CD1c; parameters: method as in Mansour et al., 2016; details: ref Mansour et al., 2016; cited from earlier work
[1] = target: T1, CSP 319‐328/HLA‐B*08:01/hβ2M complex (Homo sapiens, UniProt P01889, A93T/A95T/D138N/E176V/E187T/K202T/Q94N/R180D/S35A/V36M/Y33D/Y91F); assay: ITF with peptide/HLA complex; assay type: binding; details: for ITF change in Trp fluorescence (F-F0/F0): replicates
T1 construct: made in house
Source text: (§1) To determine whether detergent effects were specific to hCD1d, we performed analogous ITF, MST, and nanoDSF experiments with a peptide/HLA complex. HLA‐B*08:01, presenting the Plasmodium falciparum derived peptide […] ([…]), was selected as a representative model system since the peptide antigen contains hydrophilic solvent‐exposed residues in the antigen‐binding groove (Frooman et al., [2025]). Although structurally similar to that of hCD1d, HLA‐B*08:01 shares low sequence identity (Figure S10a). […] By nanoDSF, ODG caused minimal destabilization of either complex (ΔT m≈−0.2 to −0.8°C; Figure S10f). […] We posit that lipid‐specific unloading effects of detergent are due to either hydrophobic residues in the antigen binding groove (detergent‐CD1d interactions) and/or the hydrophobic nature of the lipid antigen (detergent‐lipid interactions).
(§2) For comparison with peptide/HLA molecules, we prepared recombinant CSP 319‐328/HLA‐B*08:01/hβ2M complex using in vitro refolding methods fully described previously (Frooman et al., [2025]). The peptide sequence for CSP 319–328 is […]. This peptide was chosen since it contains Lys, Gln, and Asp residues predicted to be solvent‐exposed in the HLA‐B*08:01 binding groove (Frooman et al., [2025]).
ITF experiments with peptide/HLA molecules and detergents were performed using an analogous protocol.

[2] = target: T1, CSP 319‐328/HLA‐B*08:01/hβ2M complex; assay: nanoDSF with peptide/HLA complex; assay type: binding; details: for ΔT m (nanoDSF), peptide/HLA: absence vs maximum concentration of detergent, 1 μM peptide/HLA; for nanoDSF melting temperature of peptide/HLA: replicates
Source text: as §1, §2
NanoDSF experiments with peptide/HLA molecules and detergents were performed using an analogous protocol.

Compound: C[C@H](CCC(=O)NCCC[N+](C)(C)CCCS(=O)(=O)[O-])[C@H]1CC[C@H]2[C@@H]3[C@H](O)C[C@@H]4C[C@H](O)CC[C@]4(C)[C@H]3C[C@H](O)[C@]12C [CHAPS, 3‐((3‐cholamidopropyl) dimethylammonio)‐1‐propanesulfonate]
- stripping of lipid antigens from CD1c (in words) (CD1c): not

Compound: CCCCCCCCO[C@@H]1O[C@H](CO)[C@@H](O)[C@H](O)[C@H]1O [ODG, n‐octyl‐β‐D‐glucopyranoside]
- ITF fluorescence change with peptide/HLA (in words) [1]: minimal concentration‐dependent fluorescence changes
- ITF change in Trp fluorescence (F-F0/F0) ([1]; peptide/HLA with ODG, concentration 1.53e-6 (unit not given)): 0
- ITF change in Trp fluorescence (F-F0/F0) ([1]; peptide/HLA with ODG, concentration 3.05e-6 (unit not given)): 0.00207 and -0.125 and -0.0308
- ITF change in Trp fluorescence (F-F0/F0) ([1]; peptide/HLA with ODG, concentration 6.1e-6 (unit not given)): 0.0103 and -0.142 and -0.0188
- ITF change in Trp fluorescence (F-F0/F0) ([1]; peptide/HLA with ODG, concentration 1.22e-5 (unit not given)): 0.0112 and -0.132 and -0.0414
- ITF change in Trp fluorescence (F-F0/F0) ([1]; peptide/HLA with ODG, concentration 2.44e-5 (unit not given)): 0.0406 and -0.126 and -0.0165
- ITF change in Trp fluorescence (F-F0/F0) ([1]; peptide/HLA with ODG, concentration 4.88e-5 (unit not given)): -0.113 and -0.0115 and 0.0922
- ITF change in Trp fluorescence (F-F0/F0) ([1]; peptide/HLA with ODG, concentration 9.77e-5 (unit not given)): -0.121 and -0.135 and 0.0848
- ITF change in Trp fluorescence (F-F0/F0) ([1]; peptide/HLA with ODG, concentration 0.000195 (unit not given)): 0.0173 and -0.126 and -0.052
- ITF change in Trp fluorescence (F-F0/F0) ([1]; peptide/HLA with ODG, concentration 0.000391 (unit not given)): 0.0313 and -0.107 and -0.0351
- ITF change in Trp fluorescence (F-F0/F0) ([1]; peptide/HLA with ODG, concentration 0.000781 (unit not given)): -0.0702 and -0.0972 and -0.0274
- ITF change in Trp fluorescence (F-F0/F0) ([1]; peptide/HLA with ODG, concentration 0.00156 (unit not given)): -0.063 and -0.0903 and -0.0215
- ITF change in Trp fluorescence (F-F0/F0) ([1]; peptide/HLA with ODG, concentration 0.00313 (unit not given)): 0.0779 and 0.0569 and 0.00937
- ITF change in Trp fluorescence (F-F0/F0) ([1]; peptide/HLA with ODG, concentration 0.00625 (unit not given)): 0.0158 and 0.129 and 0.219
- ITF change in Trp fluorescence (F-F0/F0) ([1]; peptide/HLA with ODG, concentration 0.0125 (unit not given)): 0.00491 and 0.00219 and 0.25
- ITF change in Trp fluorescence (F-F0/F0) ([1]; peptide/HLA with ODG, concentration 0.025 (unit not given)): 0.118 and 0.242 and 0.374
- ΔT m (nanoDSF), peptide/HLA [2]: −0.2 to −0.8 °C
- nanoDSF melting temperature of peptide/HLA ([2]; peptide/HLA with ODG, concentration 1.495 (unit not given)): 55.47 and 55.54 and 54.62
- nanoDSF melting temperature of peptide/HLA ([2]; peptide/HLA with ODG, concentration 2.991 (unit not given)): 55.33 and 55.34 and 55.32
- nanoDSF melting temperature of peptide/HLA ([2]; peptide/HLA with ODG, concentration 5.981 (unit not given)): 55.24 and 55.48 and 55.35
- nanoDSF melting temperature of peptide/HLA ([2]; peptide/HLA with ODG, concentration 11.96 (unit not given)): 55.41 and 55.18 and 55.09
- nanoDSF melting temperature of peptide/HLA ([2]; peptide/HLA with ODG, concentration 23.93 (unit not given)): 55.51 and 54.95 and 55.4
- nanoDSF melting temperature of peptide/HLA ([2]; peptide/HLA with ODG, concentration 47.85 (unit not given)): 55.44 and 54.77 and 55.24
- nanoDSF melting temperature of peptide/HLA ([2]; peptide/HLA with ODG, concentration 95.7 (unit not given)): 55.2 and 55.36 and 55.21
- nanoDSF melting temperature of peptide/HLA ([2]; peptide/HLA with ODG, concentration 191.4 (unit not given)): 55.5 and 55.26 and 55.22
- nanoDSF melting temperature of peptide/HLA ([2]; peptide/HLA with ODG, concentration 382.8 (unit not given)): 55.54 and 55.43 and 55.19
- nanoDSF melting temperature of peptide/HLA ([2]; peptide/HLA with ODG, concentration 765.6 (unit not given)): 55.29 and 55.05 and 54.95
- nanoDSF melting temperature of peptide/HLA ([2]; peptide/HLA with ODG, concentration 1531 (unit not given)): 55.13 and 55.03 and 54.92
- nanoDSF melting temperature of peptide/HLA ([2]; peptide/HLA with ODG, concentration 3063 (unit not given)): 54.91 and 54.34 and 54.94
- nanoDSF melting temperature of peptide/HLA ([2]; peptide/HLA with ODG, concentration 6125 (unit not given)): 53.87 and 53.91
- nanoDSF melting temperature of peptide/HLA ([2]; peptide/HLA with ODG, concentration 12500 (unit not given)): 51.99 and 52.51 and 52.34
- nanoDSF melting temperature of peptide/HLA ([2]; peptide/HLA with ODG, concentration 25000 (unit not given)): 50.57 and 50.47 and 50.7
- nanoDSF melting temperature of peptide/HLA ([2]; peptide/HLA with ODG, concentration 50000 (unit not given)): 50.26 and 49.92 and 50.62

Compound: Tween 20
- stripping of lipid antigens from CD1c (in words) (CD1c): could efficiently strip lipid antigens away
- Kd ([1]; 100 nM peptide/HLA, 25°C, read-out: K D (ITF), peptide/HLA): 7.7 ± 0.8 µM
- ITF change in Trp fluorescence (F-F0/F0) ([1]; peptide/HLA with Tween 20, concentration 3.05e-8 (unit not given)): 0
- ITF change in Trp fluorescence (F-F0/F0) ([1]; peptide/HLA with Tween 20, concentration 6.1e-8 (unit not given)): -0.0537 and 0.114 and 0.0797
- ITF change in Trp fluorescence (F-F0/F0) ([1]; peptide/HLA with Tween 20, concentration 1.22e-7 (unit not given)): 0.119 and -0.000172 and -0.0554
- ITF change in Trp fluorescence (F-F0/F0) ([1]; peptide/HLA with Tween 20, concentration 2.44e-7 (unit not given)): -0.00869 and 0.126 and 0.0688
- ITF change in Trp fluorescence (F-F0/F0) ([1]; peptide/HLA with Tween 20, concentration 4.88e-7 (unit not given)): 0.121 and 0.101 and 0.0628
- ITF change in Trp fluorescence (F-F0/F0) ([1]; peptide/HLA with Tween 20, concentration 9.77e-7 (unit not given)): 0.12 and -0.0283 and -0.0494
- ITF change in Trp fluorescence (F-F0/F0) ([1]; peptide/HLA with Tween 20, concentration 1.95e-6 (unit not given)): 0.159 and 0.0122 and -0.04
- ITF change in Trp fluorescence (F-F0/F0) ([1]; peptide/HLA with Tween 20, concentration 3.91e-6 (unit not given)): 0.0962 and 0.218 and 0.169
- ITF change in Trp fluorescence (F-F0/F0) ([1]; peptide/HLA with Tween 20, concentration 7.81e-6 (unit not given)): 0.176 and 0.206 and 0.0921
- ITF change in Trp fluorescence (F-F0/F0) ([1]; peptide/HLA with Tween 20, concentration 1.56e-5 (unit not given)): 0.336 and 0.182 and 0.11
- ITF change in Trp fluorescence (F-F0/F0) ([1]; peptide/HLA with Tween 20, concentration 3.13e-5 (unit not given)): 0.356 and 0.339 and 0.0994
- ITF change in Trp fluorescence (F-F0/F0) ([1]; peptide/HLA with Tween 20, concentration 6.25e-5 (unit not given)): 0.189 and 0.365 and 0.248
- ITF change in Trp fluorescence (F-F0/F0) ([1]; peptide/HLA with Tween 20, concentration 0.000125 (unit not given)): 0.38 and 0.23 and 0.139
- ITF change in Trp fluorescence (F-F0/F0) ([1]; peptide/HLA with Tween 20, concentration 0.00025 (unit not given)): 0.261 and 0.271 and 0.181
- ΔT m (nanoDSF), peptide/HLA [2]: ≈ −0.3 °C
- nanoDSF melting temperature of peptide/HLA ([2]; peptide/HLA with Tween 20, concentration 0.030518 (unit not given)): 55.19 and 55.32 and 55.37
- nanoDSF melting temperature of peptide/HLA ([2]; peptide/HLA with Tween 20, concentration 0.061035 (unit not given)): 55.29 and 55.45 and 55.24
- nanoDSF melting temperature of peptide/HLA ([2]; peptide/HLA with Tween 20, concentration 0.12207 (unit not given)): 55.51 and 55.26 and 55.3
- nanoDSF melting temperature of peptide/HLA ([2]; peptide/HLA with Tween 20, concentration 0.244141 (unit not given)): 55.15 and 55.36 and 55.47
- nanoDSF melting temperature of peptide/HLA ([2]; peptide/HLA with Tween 20, concentration 0.488281 (unit not given)): 55.37 and 55.28 and 55.18
- nanoDSF melting temperature of peptide/HLA ([2]; peptide/HLA with Tween 20, concentration 0.976563 (unit not given)): 55.33 and 55.35 and 55.37
- nanoDSF melting temperature of peptide/HLA ([2]; peptide/HLA with Tween 20, concentration 1.95312 (unit not given)): 55.37 and 55.15
- nanoDSF melting temperature of peptide/HLA ([2]; peptide/HLA with Tween 20, concentration 3.90625 (unit not given)): 55.29 and 55.17 and 55.23
- nanoDSF melting temperature of peptide/HLA ([2]; peptide/HLA with Tween 20, concentration 7.8125 (unit not given)): 55.43 and 55.31 and 55.36
- nanoDSF melting temperature of peptide/HLA ([2]; peptide/HLA with Tween 20, concentration 15.625 (unit not given)): 55.24 and 55.22 and 55.41
- nanoDSF melting temperature of peptide/HLA ([2]; peptide/HLA with Tween 20, concentration 31.25 (unit not given)): 55.63 and 55.25 and 55.23
- nanoDSF melting temperature of peptide/HLA ([2]; peptide/HLA with Tween 20, concentration 62.5 (unit not given)): 55.32 and 55.31 and 55.25
- nanoDSF melting temperature of peptide/HLA ([2]; peptide/HLA with Tween 20, concentration 125 (unit not given)): 55.13 and 55.18 and 55.19
- nanoDSF melting temperature of peptide/HLA ([2]; peptide/HLA with Tween 20, concentration 250 (unit not given)): 55.22 and 55.06 and 55.24
- nanoDSF melting temperature of peptide/HLA ([2]; peptide/HLA with Tween 20, concentration 500 (unit not given)): 54.35 and 55.14 and 54.93
- nanoDSF melting temperature of peptide/HLA ([2]; peptide/HLA with Tween 20, concentration 1000 (unit not given)): 55.13 and 54.89 and 54.93

— publication PMC12720774, “Detergents alter the stability and lipid binding properties of the CD1d immunoreceptor” (Protein Science : A Publication of the Protein Society, 2025)
